These results are taken from patent US4112082A (priority 1975, dated 1978).

Series [1] concerns spider mites (Tetrantychus strain), Normal Strain. The conditions noted are these: in vivo.
Series [2] deals with spider mites (Tetrantychus strain), Resistant Strain. The conditions noted are these: in vivo.
The subject of another series is mice. The conditions noted are these: mouse, in vivo, sc; cited from earlier work.

In the case of `CCOC(=O)CC(SP(=S)(OC)OC)C(=O)OCC` (stereo not drawn) [malathion], in series [1], the “LD50, Normal Strain” value was 50 μg/8 cm^2. Also, in series [2], the “LD50, Resistant Strain” value is 40 μg/8 cm^2.

With `CN(C)C(=O)Oc1cccc([N+](C)(C)C)c1` [neostigmine], in the series on mice, the LD50 to mice is listed as 0.42 mg/kg.
